Data set [1] relates to Canis familiaris. Kind of data set: The mean arterial blood pressure drop after administration was determined. In kind it is functional, Canis lupus familiaris.
Data set [2] in a line: Solubility in 1 M HCl. The class given is physicochemical. Particulars: read-out: S.
Data set [3] concerns Canis familiaris. Kind of data set: Tested for effective dose required to produce cardiotonic activity after intravenous administration in anesthetized dog model. In kind it is functional. Particulars: Canis lupus familiaris.
Data set [4] relates to Canis familiaris. The data set is described as follows: Maximum increase in cardiac force at 75 ug/Kg was observed in an anesthetized dog model(iv). The class given is functional, Canis lupus familiaris.
The species entered for data set [5] is Canis familiaris. The data set is described as follows: The differential (dp/dt) maximal rise in blood pressure with respect to time was evaluated. In kind it is functional, Canis lupus familiaris.
The nature of data set [6]: Solubility in 1 M HCl; compound is insoluble. The class given is physicochemical. The following applies: buffer.
The test system of data set [7] is Canis familiaris. The data set is described as follows: The high peak activity was evaluated at a dose of 35 ug/kg intravenously in dog. The class given is functional, Canis lupus familiaris.

Values after ≈ are worked out from the molar mass of the structure shown.

One may read the ED50 as the dose that gives a 50% effect, or the effect in half of the subjects.

For `CC1CC(=O)NN=C1c1ccc2c(c1)Oc1cn[nH]c1N2` (centres undefined), in the data set on Canis familiaris [1], the “Decrease in blood pressure” value came out at 21%. For the same compound, the solubility in data set [2] turned out to be 300 µg/mL (≈ 1060 µM). The ED50 in the data set on Canis familiaris [3] is 0.015 mg/kg. The Increase with Canis familiaris [4] was found to be 256%. This compound showed a Change in the data set filed under Canis familiaris [5] of 119%.

As to `CC1CC(=O)NN=C1c1ccc2c(c1)OCC(=O)N2` (centres undefined) [BEMORADAN], the S entry in data set [6] is “Insoluble”. In the data set with Canis familiaris [3], this compound yielded a median effective dose (ED50) of 0.0054 mg/kg. In the data set on Canis familiaris [4], the Increase stood at 127%. In addition, in the data set on Canis familiaris [7], the Activity was 200.

The record behind these values is ChEMBL document CHEMBL1151024, “Synthesis and cardiotonic activity of 2,9-dihydro-6-(5-methyl-3-oxo-2,3,4,5-tetrahydropyridazin-6-yl)pyrazolo[4,3-b][1,4]benzoxazine” (Bioorg Med Chem Lett, 1993).
